Assay results: patent publication EP0476645B1, “Calcium uptake inhibitors” (MERRELL DOW PHARMACEUTICALS INC., priority 1990, dated 1992)
Read-outs that look alike come from different tables or passages of the source.

Columns and labels:
Rat PMNL = experiment: Myeloperoxidase (MPO) release from stimulated PMNL; type: cell-based; conditions: for inhibition at 1 µM / inhibition at 3 µM / inhibition at 10 µM / inhibition at 30 µM / inhibition at 100 µM: Rattus norvegicus, PMNL, inhibition of MPO release; for inhibition at 1 µM: 1 µM compound; for inhibition at 3 µM: 3 µM compound; for inhibition at 10 µM: 10 µM compound; for inhibition at 30 µM: 30 µM compound; for inhibition at 100 µM: 100 µM compound; for inhibition of release of myeloperoxidase: fMLP with cytochalasin B, opsonized zymosan or ionomycin stimulus, result in words
Method: Rat PMNL were obtained from exudates resulting from peritoneal injection of 6 mL of 8% sodium caseinate. Eighteen hours after injection rats were killed by carbon dioxide inhalation and the peritoneal cavity lavaged with Hank's balanced salt solution (HBSS). After concentration of the PMNL by centrifugation, contaminating erythrocytes were removed by hypotonic lysis. The PMNL were then washed twice by centrifugation (400 x g for 10 minutes) and resuspended in HBSS. Cell viability was greater than 90% by Trypan Blue exclusion and greater than 90% of the cells were PMNL by Wright-Giemsa stain.
MPO release was determined using the MPO catalyzed oxidation of o-dianisidine. The experiments were carried out in 96-well microtiter plates (Webster and Henson, 1978). In each well, 50 microliter (µl) aliquots of a PMNL suspension (2 x 10⁷ cells/mL in HBSS) were incubated with 50 µl of HBSS containing vehicle (0.3% DMSO) or inhibitor for 30 minutes at 37°C. The final DMSO concentration never exceeded 0.3% and was constant throughout each experiment. To activate the PMNL, 50 µl of one of the following were added for 30 minutes at 37°C: N-formyl-Met-Leu-Phe (fMLP; 0.1 µM); phorbol myristate acetate (PMA, 200 ng/mL); or rat serum opsonized zymosan (OZ; 2.6 mg/mL, prepared by the method of Ward et al., 1983). The stimuli were added in 50 µl HBSS which also contained the compounds or vehicle, as appropriate, to avoid changing the inhibitor concentration. Cell activation was terminated by centrifugation of the plates at 600 x g for 5 minutes at 22°C. Aliquots (100 µl) of supernatant were removed from each well and transferred to a 96-well flatbottomed microtiter plate for the MPO assay. To each aliquot of supernatant was added 100 µl of a freshly prepared solution containing 50 µl of 0.2 M sodium phosphate buffer (pH 6.2), 25 µl of 3.9 mM o-dianisidine and 25 µl of 0.015 M hydrogen peroxide. Blanks were obtained using the same solution without hydrogen peroxide. The plates were mixed and then incubated at room temperature in the dark for about 15 minutes. Absorbances of the samples were measured at 450 nm.
Rat PMNL were isolated in HBSS containing Ca⁺². As summarized in the figures below, fMLP stimulation of rat PMNL in the presence of cytochalasin B or with opsonized zymosan or with ionomycin results in the release of myeloperoxidase (fMLP/MPO, OZ/MPO, and ION/MPO; columns 2, 4, and 6 respectively).

[1] = tested on: Mustard Oil-Induced Mouse Ear Edema; experiment: Mustard oil-induced mouse ear edema; type: in vivo, Charles River male CD-1 mice; conditions: ear weight increase after 30 minutes
Method: Charles River male CD-1 mice weighing 30-60 grams were divided into randomized groups. They were dosed i.p. for 30 minutes prior or orally 1 hour prior to application of 20 µl of mustard oil (10% isothiocyanate in acetone) to the right ear. After 30 minutes the mice were sacrificed and an 8 millimeter diameter circular punch biopsy of each ear was obtained and weighed. The difference between the left (control) and right (treated) ear weights were expressed as percent increase.

[2] = tested on: Carrageenin-Induced Rat Paw Edema; experiment: Carrageenin-induced rat paw edema; type: in vivo, Charles River male Sprague-Dawley rats; conditions: one hour prior to paw injection, paw volume three hours after carrageenin, dose not given
Method: Charles River male Sprague-Dawley rats weighing 90 to 100 grams were used. Inflammation of the left hind paw was induced by a 1% carrageenin solution (0.05 cc), injected into the plantar surface of the paw. The contralateral paw was injected with an equal volume of saline. Drugs were administered orally or i.p. (1 cc/100 grams) one hour prior to paw injection. Three hours following the carrageenin injection the difference in volume of the control and inflamed paw was measured. Each paw was immersed in a well of mercury and the volume of mercury displaced was recorded. Paws were uniformly dipped into the mercury up to the beginning of the hairline. A venous pressure transducer, coupled to a chart recorder, was employed to measure the small volumes of mercury displaced. Each group measurement consists of the average of four rats, each with three separate measurements.

[3] = fMLP stimulus in the presence of cytochalasin B, read-out: IMLP/MPO
[4] = ionomycin stimulus, read-out: ION/MPO
[5] = opsonized zymosan stimulus, read-out: OZ/MPO
[6] = 10 mg/Kg i.p., 30 minutes prior to mustard oil
[7] = 10 mg/Kg oral, 1 hour prior to mustard oil
[8] = 30 mg/Kg i.p., 30 minutes prior to mustard oil
[9] = 30 mg/Kg oral, 1 hour prior to mustard oil
[10] = 100 mg/Kg i.p., 30 minutes prior to mustard oil
[11] = 100 mg/Kg oral, 1 hour prior to mustard oil

O=C(C#Cc1ccncc1)c1ccccc1 [MDL 101,098, 1-Phenyl-3-(4-pyridinyl)-2-propyne-1-one]
inhibition at 1 µM (Rat PMNL; [3]): 2.9% | inhibition at 3 µM (Rat PMNL; [3]): 7.5% | inhibition at 10 µM (Rat PMNL; [3]): 34.9% | inhibition at 30 µM (Rat PMNL; [3]): 80.8% | inhibition at 100 µM (Rat PMNL; [3]): 96.2% | inhibition at 1 µM (Rat PMNL; [4]): -2.8% | inhibition at 3 µM (Rat PMNL; [4]): 0% | inhibition at 10 µM (Rat PMNL; [4]): 5.7% | inhibition at 30 µM (Rat PMNL; [4]): 12.7% | inhibition at 100 µM (Rat PMNL; [4]): 88.4% | inhibition at 1 µM (Rat PMNL; [5]): 5.4% | inhibition at 3 µM (Rat PMNL; [5]): 14.7% | inhibition at 10 µM (Rat PMNL; [5]): 48.7% | inhibition at 30 µM (Rat PMNL; [5]): 92.2% | inhibition at 100 µM (Rat PMNL; [5]): 97.2% | inhibition of release of myeloperoxidase (Rat PMNL): dose dependent inhibition | %Inhibition [1, 6]: 38.6 ± 13.1% | %Inhibition [1, 7]: 38.5 ± 34.9% | %Inhibition [1, 8]: 56.8 ± 6.4% | %Inhibition [1, 9]: 6.4 ± 27.7% | %Inhibition [1, 10]: 68.2 ± 5.8% | %Inhibition [1, 11]: 43.9 ± 15.6% | %Inhibition ([2]; i.p.): 64.8% | %Inhibition ([2]; p.o.): 42.4%

CN(C)c1ccc(C(=O)C#Cc2ccncc2)cc1 [MDL 102,175, 1-(4-Dimethylaminophenyl)-3-(4-pyridinyl)-2-propyne-1-one]
inhibition at 1 µM (Rat PMNL; [3]): 12.6% | inhibition at 3 µM (Rat PMNL; [3]): 27.9% | inhibition at 10 µM (Rat PMNL; [3]): 70.6% | inhibition at 30 µM (Rat PMNL; [3]): 104% | inhibition at 100 µM (Rat PMNL; [3]): 113% | inhibition at 1 µM (Rat PMNL; [4]): 0.8% | inhibition at 3 µM (Rat PMNL; [4]): 1.5% | inhibition at 10 µM (Rat PMNL; [4]): 21.3% | inhibition at 30 µM (Rat PMNL; [4]): 20.5% | inhibition at 100 µM (Rat PMNL; [4]): 83.4% | inhibition at 1 µM (Rat PMNL; [5]): 16.9% | inhibition at 3 µM (Rat PMNL; [5]): 26.6% | inhibition at 10 µM (Rat PMNL; [5]): 78.5% | inhibition at 30 µM (Rat PMNL; [5]): 107% | inhibition at 100 µM (Rat PMNL; [5]): 118% | inhibition of release of myeloperoxidase (Rat PMNL): dose dependent inhibition | %Inhibition [1, 6]: 38.6 ± 13.1% | %Inhibition [1, 7]: 38.5 ± 34.9% | %Inhibition [1, 8]: 56.8 ± 6.4% | %Inhibition [1, 9]: 6.4 ± 27.7% | %Inhibition [1, 10]: 68.2 ± 5.8% | %Inhibition [1, 11]: 43.9 ± 15.6% | %Inhibition ([2]; i.p.): 73.2% | %Inhibition ([2]; p.o.): 19.8%
